{
  "source": "patent US4900538A",
  "about": "(Suntory Limited, priority 1982, dated 1990)",
  "key": {"[1]": {"tested_on": "Escherichia coli K 12 envA uvr B (λ), GY 5027", "format": "cell-based", "conditions": "for Inactivation of mutagenicity (phage induction activity) of adriamycin, dose-response: absence of S9 mix, molar ratios to adriamycin 1:1 to 30:1 (FIG. 12)", "from_the_text": "Inductest III (P. Morean, A. Bailone and R. Devoret: Proc. Natl. Acad. Sci. U.S.A., Vol. 73, No. 10, 3700-3704, '76). This method is a test for mutagenicity using prophage λ induction as an index. The strains used in this method were Escherichia coli K 12 envA uvr B (λ), GY 5027 and as λ indicator GY 4015 (Amp R).\nThis method uses phage induction activity as an index.\nPotassium sulfite was used as a sulfite compound and potassium pyrosulfite which produces 2 equivalents of hydrogensulfite ion when dissolved in water was used as acid sulfite.\nDithionite produces two equivalents of hydrogensulfite ions when dissolved in water.\nThe molar ratio of sodium dithionite to daunomycin was 15:1. In FIGS. 13 and 14 the symbol indicates daunomycin alone and the symbol indicates daunomycin plus sodium dithionite.\nSodium sulfite was used as a sulfite at a molar ratio of sodium sulfite to daunomycin of 30:1."}, "DNA": {"tested_on": "DNA", "conditions": "cited from earlier work"}, "[2]": {"tested_on": "Salmonella typhimurium TA 98", "test": "Ames test (Preincubation Method): mutagenicity and its inactivation by sulfite compounds", "conditions": "FIGS. 1, 6 and 7 (also FIGS. 3 and 4, Inductest III)", "protocol": "This method is based on the Ames test (B. N. Ames, J. Mac Gann and E. Yamasaki: Mutation Research, Vol. 31, 347-364, '75). […] The strain used in this method was histidine requisite Salmonella typhimurium TA 100 and TA 98 (hereinafter referred to as St TA 100 and St TA 98).\nAt the same time, predetermined amounts of sodium sulfite, sodium hydrogensulfite (sodium acid sulfite), sodium pyrosulfite, sodium dithionite or sulphurous anhydride were dissolved in aseptic distilled water.\nTo 100 μl of each of the samples prepared in the above (2), 500 μl of 100 mM sodium phosphate buffer (pH 7.4) and 100 μl of a culture of St TA 100 or St TA 98 were added. Each mixture was shaken for 20 minutes at 37° C., added to 2.5 ml of a soft agar solution and spread on 0.1% glucose agar plate which had been supplemented with 0.1 μM per plate of histidine in order to create several divisions. After incubation at 37° C. for 48 hours, the number of colonies on the plate was counted as revertants. This method uses nutrient requisiteness of the above strains as an index."}, "male CD-1 (ICR) mice": {"tested_on": "male CD-1 (ICR) mice", "test": "Acute toxicity in mice (survival days)", "protocol": "Male CD-1 (ICR) mice (12 weeks old) were used as test animals. The temperature in the animal room was maintained at 23° C. (±3° C.) and relative humidity was kept at 30-70%. Artificial lighting was carried out by illumination and darkening at successive intervals of 12 hours.\nThe test substances were dissolved in distilled water and intraperitoneally administered to the animals at a dose of 10 ml/kg.\nThe above t-test was carried out as follows."}, "L1210 cells": {"tested_on": "L1210 cells", "test": "In vivo carcinostatic activity against transplanted L1210 cells (ILS, survivors)", "conditions": "i.p.", "method": "Male BDF1 mice (57BL/6XDBA/2) weighing 19-20 g were used in this experiment. Feed (CA-1, Nihon Kurea Kabushiki Kaisha, Meguro-ku, Tokyo, Japan) and water were freely taken. 1×10^5 L 1210 cells were intraperitoneally transplanted to a mouse in each group of 6 mice. Test substances were intraperitoneally administered to mice 24 hours after i.p. injection of L1210 cells and thereafter one time each day for 5 days. Survival days of all of the mice were recorded and carcinostatic effects of the test compounds were measured by using index of life spread (ILS %) to the control group."}, "[3]": {"tested_on": "strains used (Salmonella typhimurium, Escherichia coli)", "test": "Growth / survival of the strains used in the mutagenicity tests", "format": "cell-based", "conditions": "explains apparent reduction of mutagenicity at high levels"}, "[4]": {"conditions": "Japanese Patent application No. 144272/81; cited from earlier work"}},
  "note": "Several values for one entry are separate records, joined by “and”; a condition that tells them apart may be missing. Equal entries are not always repeated. Where two headings read alike, the source gives them in different places.",
  "data": [
    {"smiles": "O=S([O-])S(=O)(=O)[O-].[K+].[K+]", "note": "[acid sulfite, potassium pyrosulfite]", "values": [
      {"measurement": "Inactivation of mutagenicity (phage induction activity) of adriamycin, dose-response", "setting": "[1]", "value": "the more remarkably the mutagenicity of adriamycin was inactivated"}
    ]},
    {"smiles": "COc1cccc2c1C(=O)c1c(O)c3c(c(O)c1C2=O)C[C@@](O)(C(=O)CO)C[C@@H]3O[C@H]1C[C@H](N)[C@H](O)[C@H](C)O1", "note": "[adriamycin]", "values": [
      {"measurement": "Base pairs of DNA reacting per one molecule (intercalation)", "setting": "DNA", "value": 3, "unit": "base pairs"},
      {"measurement": "Apparent change of mutagenicity at high levels of the antibiotic per se", "setting": "[2]", "value": "appear to be reduced at high levels"},
      {"measurement": "Survival days, individual mouse", "setting": "male CD-1 (ICR) mice; experiment (1): adriamycin 20 mg/kg i.p. daily for 3 days, no hydrogensulfite, mice No. 1-12 in order", "value": "0 days (8×) and 1 days (4×)"},
      {"measurement": "Survival days, mean (x)", "setting": "male CD-1 (ICR) mice; experiment (1): adriamycin 20 mg/kg i.p. daily for 3 days, no hydrogensulfite, n=12, s 0.5778", "value": 0.3333, "unit": "days"},
      {"measurement": "Survival days, individual mouse", "setting": "male CD-1 (ICR) mice; experiment (2): adriamycin alone 20 mg/kg i.p., mice No. 1-11 in order, listed as ADM", "value": "14 days and 7 days and 6 days and 5 days and 4 days"},
      {"measurement": "Survival days, mean (x)", "setting": "male CD-1 (ICR) mice; experiment (2): adriamycin alone 20 mg/kg i.p., n=11, s 2.747", "value": 7.545, "unit": "days"},
      {"measurement": "Survivors (on Day 60)", "setting": "L1210 cells; adriamycin 1 mg/kg/day × 5, sodium hydrogensulfite 0", "value": "1 and 1/6"},
      {"measurement": "Survivors (on Day 60)", "setting": "L1210 cells; adriamycin 3 mg/kg/day × 5, sodium hydrogensulfite 0", "value": "zero and 0/6"}
    ]},
    {"smiles": "COc1cccc2c1C(=O)c1c(O)c3c(c(O)c1C2=O)C[C@@](O)(C(C)=O)C[C@@H]3O[C@H]1C[C@H](N)[C@H](O)[C@H](C)O1", "note": "[daunomycin]", "values": [
      {"measurement": "Base pairs of DNA reacting per one molecule (intercalation)", "setting": "DNA", "value": 3, "unit": "base pairs"},
      {"measurement": "Apparent change of mutagenicity at high levels of the antibiotic per se", "setting": "[2]", "value": "appear to be reduced at high levels"},
      {"measurement": "Cellular toxicity", "setting": "[3]", "value": "have cellular toxicity"}
    ]},
    {"smiles": "O=S(O)O", "note": "[hydrogensulfite ion]", "values": [
      {"measurement": "Hydrogensulfite ion in molar concentration necessary for complete inactivation of mutagenicity of adriamycin", "setting": "[1]; absence of S9 mix (FIG. 5)", "value": "at least ten"}
    ]},
    {"smiles": "O=S([O-])S(=O)[O-].[Na+].[Na+]", "note": "[sodium dithionite]", "values": [
      {"measurement": "Inactivation of mutagenicity of daunomycin (phage induction)", "setting": "[1]; molar ratio dithionite to daunomycin 15:1, independently of S9 mix (FIGS. 13 and 14)", "value": "completely inactivated"}
    ]},
    {"smiles": "O=S([O-])O.[Na+]", "note": "[sodium hydrogensulfite]", "values": [
      {"measurement": "Reduction of toxicity of adriamycin (t-test of survival days)", "setting": "male CD-1 (ICR) mice; experiment (1): adriamycin 20 mg/kg for 3 days, sodium hydrogensulfite 53.8 mg/kg (FIG. 10)", "value": "significantly reduced toxicity at a confidence level of 90%"}
    ]},
    {"smiles": "O=S([O-])[O-].[Na+].[Na+]", "note": "[sodium sulfite]", "values": [
      {"measurement": "Inactivation of mutagenicity of daunomycin (phage induction)", "setting": "[1]; molar ratio sodium sulfite to daunomycin 30:1, absence and presence of S9 mix (FIGS. 15 and 16)", "value": "completely inactivated"}
    ]},
    {"smiles": "O=S(O)O", "note": "[sulfite ion]", "values": [
      {"measurement": "Inactivation of mutagenicities of coffee, tobacco tar and spirits", "setting": "[4]", "value": "inactivates mutagenicities"}
    ]},
    {"smiles": "O=S([O-])[O-].[K+].[K+]", "note": "[sulfite, potassium sulfite]", "values": [
      {"measurement": "Inactivation of mutagenicity (phage induction activity) of adriamycin, dose-response", "setting": "[1]", "value": "the more remarkably the mutagenicity of adriamycin was inactivated"}
    ]}
  ]
}
